Assay results as given in PMC6627067, “Probing Multi-Target Action of Phlorotannins as New Monoamine Oxidase Inhibitors and Dopaminergic Receptor Modulators with the Potential for Treatment of Neuronal Disorders” (Marine Drugs, 2019).
“And” between values parts separate entries of the source, which are not always exact repeats. Identical values can stand only once. Like-named read-outs stand apart in the source and are kept apart here.

Key:
[1] = target: T1, hMAO-A (Homo sapiens, UniProt P21397); experiment: hMAO-A inhibition, chemiluminescent MAO-Glo assay and kinetic analysis; type: biochemical; settings: recombinant hMAO-A, mean ± SD, n = 3
T1 sequence (P21397 1-527): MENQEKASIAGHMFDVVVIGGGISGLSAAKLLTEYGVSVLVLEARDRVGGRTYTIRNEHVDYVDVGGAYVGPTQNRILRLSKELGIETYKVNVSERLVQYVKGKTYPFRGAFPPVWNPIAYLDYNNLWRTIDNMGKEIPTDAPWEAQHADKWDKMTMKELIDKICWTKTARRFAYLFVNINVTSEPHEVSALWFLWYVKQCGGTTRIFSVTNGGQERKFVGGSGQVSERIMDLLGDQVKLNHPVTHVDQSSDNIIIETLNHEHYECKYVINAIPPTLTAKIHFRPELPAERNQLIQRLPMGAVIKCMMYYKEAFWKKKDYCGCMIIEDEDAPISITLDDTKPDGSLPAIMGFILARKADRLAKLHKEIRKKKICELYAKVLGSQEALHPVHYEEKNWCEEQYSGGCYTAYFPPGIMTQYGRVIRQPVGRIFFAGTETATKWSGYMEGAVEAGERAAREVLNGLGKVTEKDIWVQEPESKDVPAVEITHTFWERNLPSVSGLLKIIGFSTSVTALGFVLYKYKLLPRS

[2] = target: T2, hMAO-B (Homo sapiens, UniProt P27338); experiment: hMAO-B inhibition, chemiluminescent MAO-Glo assay and kinetic analysis; type: biochemical; settings: recombinant hMAO-B; mean ± SD, n = 3
T2 sequence (P27338 1-520): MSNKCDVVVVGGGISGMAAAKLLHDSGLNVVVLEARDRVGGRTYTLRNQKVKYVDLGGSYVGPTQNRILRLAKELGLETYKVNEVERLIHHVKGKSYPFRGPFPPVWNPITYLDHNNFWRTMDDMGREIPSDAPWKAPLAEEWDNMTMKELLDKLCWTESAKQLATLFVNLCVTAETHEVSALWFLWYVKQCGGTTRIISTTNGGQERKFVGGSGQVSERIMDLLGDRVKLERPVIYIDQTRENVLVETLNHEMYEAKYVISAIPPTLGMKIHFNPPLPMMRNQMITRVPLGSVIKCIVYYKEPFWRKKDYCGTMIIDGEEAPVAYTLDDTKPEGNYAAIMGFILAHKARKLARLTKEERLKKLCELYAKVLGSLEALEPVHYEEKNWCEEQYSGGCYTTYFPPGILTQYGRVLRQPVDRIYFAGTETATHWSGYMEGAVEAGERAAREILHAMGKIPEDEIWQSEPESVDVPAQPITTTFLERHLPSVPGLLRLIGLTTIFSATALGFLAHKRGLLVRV

[3] = target: T3, hM5 (CHRM5) (Homo sapiens, UniProt P08912); experiment: GPCR cell-based functional assay, intracellular Ca2+ level, M5; settings: for % Stimulation of control agonist response, hM5: agonist effect at 100 µM; for inhibition at 100 µM: antagonist effect at 100 µM, read-out: % Inhibition of control agonist response, hM5
T3 sequence (P08912 1-532): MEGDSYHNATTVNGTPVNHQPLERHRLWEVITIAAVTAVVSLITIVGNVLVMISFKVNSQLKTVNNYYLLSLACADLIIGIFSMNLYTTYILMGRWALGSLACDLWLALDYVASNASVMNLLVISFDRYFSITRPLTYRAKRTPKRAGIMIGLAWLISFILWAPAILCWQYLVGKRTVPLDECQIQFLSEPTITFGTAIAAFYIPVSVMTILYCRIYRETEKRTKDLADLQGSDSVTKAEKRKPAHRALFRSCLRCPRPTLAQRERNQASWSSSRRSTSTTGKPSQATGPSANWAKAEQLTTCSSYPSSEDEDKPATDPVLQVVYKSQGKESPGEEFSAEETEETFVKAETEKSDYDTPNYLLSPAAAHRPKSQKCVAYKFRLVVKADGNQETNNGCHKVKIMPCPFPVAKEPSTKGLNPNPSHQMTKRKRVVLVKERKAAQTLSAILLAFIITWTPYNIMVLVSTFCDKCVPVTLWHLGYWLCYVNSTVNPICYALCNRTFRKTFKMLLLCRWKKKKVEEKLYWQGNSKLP

[4] = target: hNK1 (TACR1) (Homo sapiens, UniProt P25103); experiment: GPCR cell-based functional assay, intracellular Ca2+ level, NK1; settings: for % Stimulation of control agonist response, hNK1: agonist effect at 100 µM; for inhibition at 100 µM: antagonist effect at 100 µM, read-out: % Inhibition of control agonist response, hNK1
[5] = target: T4, h5-HT1A (HTR1A) (Homo sapiens, UniProt P08908); experiment: GPCR cell-based functional assay, intracellular Ca2+ level, 5-HT1A; settings: for % Stimulation of control agonist response, h5-HT1A: agonist effect at 100 µM; for inhibition at 100 µM: antagonist effect at 100 µM, read-out: % Inhibition of control agonist response, h5-HT1A
T4 sequence (P08908 1-422): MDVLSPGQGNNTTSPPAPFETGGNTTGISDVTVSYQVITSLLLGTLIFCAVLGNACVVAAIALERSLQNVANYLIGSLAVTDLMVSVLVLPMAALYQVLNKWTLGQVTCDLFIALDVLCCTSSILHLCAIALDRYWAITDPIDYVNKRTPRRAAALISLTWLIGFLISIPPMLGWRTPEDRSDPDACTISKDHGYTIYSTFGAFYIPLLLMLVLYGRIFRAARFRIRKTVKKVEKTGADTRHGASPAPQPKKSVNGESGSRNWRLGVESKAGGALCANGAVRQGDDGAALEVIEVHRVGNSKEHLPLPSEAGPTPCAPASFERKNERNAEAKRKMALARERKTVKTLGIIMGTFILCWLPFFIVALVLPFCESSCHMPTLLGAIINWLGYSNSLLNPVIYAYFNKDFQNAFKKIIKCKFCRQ

[6] = target: hV1A (AVPR1A) (Homo sapiens, UniProt P37288); experiment: GPCR cell-based functional assay, intracellular Ca2+ level, V1A; settings: for % Stimulation of control agonist response, hV1A: agonist effect at 100 µM; for inhibition at 100 µM: antagonist effect at 100 µM, read-out: % Inhibition of control agonist response, hV1A
[7] = target: T5, hD1 (DRD1) (Homo sapiens, UniProt P21728); settings: agonist effect at 100 µM
[8] = target: T6, hD3 (DRD3) (Homo sapiens, UniProt P35462); settings: for % Stimulation of control agonist response, hD3: agonist effect at 100 µM
[9] = target: T5, hD1 (DRD1); experiment: cell-based; settings: read-out: % Inhibition of control agonist response, hD1
[10] = target: T6, hD3 (DRD3); experiment: cell-based; settings: for inhibition at 100 µM: read-out: % Inhibition of control agonist response, hD3
[11] = target: T7, hD4 (DRD4) (Homo sapiens, UniProt P21917); settings: for % Stimulation of control agonist response, hD4: agonist effect at 100 µM; for inhibition at 100 µM: read-out: % Inhibition of control agonist response, hD4
T7 sequence (P21917 1-419): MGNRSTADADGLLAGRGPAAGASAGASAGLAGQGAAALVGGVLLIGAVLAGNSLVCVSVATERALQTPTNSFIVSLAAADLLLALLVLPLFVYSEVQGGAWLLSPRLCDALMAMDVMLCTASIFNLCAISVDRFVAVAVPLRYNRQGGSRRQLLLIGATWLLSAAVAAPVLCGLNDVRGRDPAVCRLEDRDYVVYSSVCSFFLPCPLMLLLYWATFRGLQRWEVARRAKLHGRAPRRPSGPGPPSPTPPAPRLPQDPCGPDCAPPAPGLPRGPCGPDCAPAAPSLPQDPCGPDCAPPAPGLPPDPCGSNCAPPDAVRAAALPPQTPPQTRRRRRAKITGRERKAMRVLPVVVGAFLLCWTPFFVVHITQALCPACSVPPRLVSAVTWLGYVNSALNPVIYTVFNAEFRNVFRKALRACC

[12] = target: T1, hMAO-A; parameters: method as in PMID 28251489; settings: cited from earlier work
[13] = target: T2, hMAO-B; parameters: method as in PMID 28251489; settings: cited from earlier work
[14] = parameters: method as in PMID 25996411; settings: cited from earlier work
[15] = concentration-dependent stimulation, mean ± SD

T6 sequence (P35462 whole entry): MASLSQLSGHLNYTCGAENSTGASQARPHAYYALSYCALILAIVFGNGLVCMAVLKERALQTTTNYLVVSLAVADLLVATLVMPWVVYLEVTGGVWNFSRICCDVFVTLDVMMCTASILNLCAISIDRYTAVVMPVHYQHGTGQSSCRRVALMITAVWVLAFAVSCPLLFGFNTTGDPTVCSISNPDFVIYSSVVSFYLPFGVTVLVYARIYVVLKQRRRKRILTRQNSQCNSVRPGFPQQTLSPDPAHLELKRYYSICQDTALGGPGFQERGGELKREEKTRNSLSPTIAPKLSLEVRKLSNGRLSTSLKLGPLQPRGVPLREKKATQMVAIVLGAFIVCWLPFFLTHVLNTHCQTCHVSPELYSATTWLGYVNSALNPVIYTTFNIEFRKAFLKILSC
Chain of hNK1 (TACR1) (P25103 whole entry): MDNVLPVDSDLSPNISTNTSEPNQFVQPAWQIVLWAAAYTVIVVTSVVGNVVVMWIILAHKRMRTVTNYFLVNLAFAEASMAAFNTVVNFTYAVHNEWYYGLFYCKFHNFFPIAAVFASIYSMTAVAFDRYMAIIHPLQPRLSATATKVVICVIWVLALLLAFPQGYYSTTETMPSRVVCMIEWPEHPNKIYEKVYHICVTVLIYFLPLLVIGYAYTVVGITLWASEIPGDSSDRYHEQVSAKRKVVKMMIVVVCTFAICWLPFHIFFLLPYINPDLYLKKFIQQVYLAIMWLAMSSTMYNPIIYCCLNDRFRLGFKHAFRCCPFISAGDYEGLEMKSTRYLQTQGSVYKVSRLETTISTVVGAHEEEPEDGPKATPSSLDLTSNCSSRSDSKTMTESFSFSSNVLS
T5 sequence (P21728 whole entry): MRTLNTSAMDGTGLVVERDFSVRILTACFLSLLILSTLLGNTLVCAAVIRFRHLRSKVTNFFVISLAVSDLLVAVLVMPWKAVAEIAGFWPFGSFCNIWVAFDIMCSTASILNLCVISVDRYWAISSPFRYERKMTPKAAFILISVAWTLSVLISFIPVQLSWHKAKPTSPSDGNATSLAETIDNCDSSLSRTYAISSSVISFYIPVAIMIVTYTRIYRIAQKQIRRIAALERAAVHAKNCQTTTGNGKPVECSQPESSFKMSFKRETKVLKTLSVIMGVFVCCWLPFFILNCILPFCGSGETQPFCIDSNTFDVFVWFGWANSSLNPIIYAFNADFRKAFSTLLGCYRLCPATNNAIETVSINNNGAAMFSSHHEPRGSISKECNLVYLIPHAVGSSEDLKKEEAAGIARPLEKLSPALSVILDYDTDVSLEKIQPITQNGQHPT
Chain of hV1A (AVPR1A) (P37288 whole entry): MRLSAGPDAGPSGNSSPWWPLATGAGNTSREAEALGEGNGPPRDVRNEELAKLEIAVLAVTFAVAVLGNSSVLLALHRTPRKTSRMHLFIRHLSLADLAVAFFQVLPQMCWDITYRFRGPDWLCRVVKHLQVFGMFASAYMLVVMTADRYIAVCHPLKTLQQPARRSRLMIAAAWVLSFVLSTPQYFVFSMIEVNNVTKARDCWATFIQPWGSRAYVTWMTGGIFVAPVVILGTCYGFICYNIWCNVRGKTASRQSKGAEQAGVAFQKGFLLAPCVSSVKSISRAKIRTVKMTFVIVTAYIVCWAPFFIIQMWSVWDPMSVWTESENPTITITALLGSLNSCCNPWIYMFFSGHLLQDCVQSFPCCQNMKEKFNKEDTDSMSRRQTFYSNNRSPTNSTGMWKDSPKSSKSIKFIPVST

% Stimulation of control agonist response, hM5 [3]	inhibition at 100 µM [3] [%]	% Stimulation of control agonist response, hNK1 [4]	inhibition at 100 µM [4] [%]	% Stimulation of control agonist response, h5-HT1A [5]	inhibition at 100 µM [5] [%]	% Stimulation of control agonist response, hV1A [6]	inhibition at 100 µM [6] [%]	% Stimulation of control agonist response, hD1 [7]	% Stimulation of control agonist response, hD3 [8]	inhibition at 100 µM [9] [%]	inhibition at 100 µM [10] [%]	% Stimulation of control agonist response, hD4 [11]	inhibition at 100 µM [11] [%]	Compound	also measured
−6.05 ± 0.78 ^B %	-21.6	−0.85 ± 0.21 ^C %	-8.05	0.10 ± 0.28 ^B %	-4.15	−0.80 ± 0.57 ^C %	13.9	0.20 ± 3.82 ^A %	−0.15 ± 14.07 ^C %	4.95	-6.75	−9.95 ± 14.50 ^C %	-7.05	Oc1cc(O)cc(O)c1 [Phloroglucinol, phloroglucinol]	IC50 hMAO-A [1]: no inhibitory activity; IC50 ([1]; read-out: IC50 hMAO-A): > 900 µM; IC50 [2]: > 900 µM; IC50 hMAO-B [2]: no inhibitory activity; EC50, dopamine D3 agonist effect [8, 15]: No activity; EC50, dopamine D4 agonist effect [11, 15]: No activity
7.60 ± 17.11 ^AB %	19.6	54.70 ± 1.41 ^B %	77.7	1.75 ± 0.64 ^A %	76.8	64.20 ± 0.14 ^A %	46.2	1.05 ± 0.21 ^A %	81.10 ± 0.66 ^B %	60.6	-2.5	74.43 ± 6.37 ^B %	-5.35	Oc1cc(O)cc(Oc2c(O)cc(O)c3c2Oc2c(O)cc(Oc4c(O)cc(Oc5c(O)cc(O)c6c5Oc5c(O)cc(O)cc5O6)cc4O)cc2O3)c1 [Dieckol, dieckol]	% Stimulation of control agonist response, hNK1 ([4]; listed as dieckol): 54.70%; % Stimulation of control agonist response, hV1A ([6]; listed as dieckol): 64.20 ± 0.14% and 64.2%; % Stimulation of control agonist response, hD3 ([8]; listed as dieckol): 81.10 ± 0.66%; Ki [12]: 20.3 µM; SI (selective index) ([12]; ratio of hMAO-A IC50/hMAO-B IC50): 0.26; IC50 ([12]; recombinant hMAO-A, obtained from the literature): 11.4 ± 1.06 µM; Ki [13]: 18.5 µM; IC50 ([13]; recombinant hMAO-B, obtained from the literature): 43.4 ± 0.73 µM; BBB penetration [14]: effectively penetrate the BBB; EC50 [10]: 44.2 ± 3.25 µM; EC50 [11]: 34 ± 8.62 µM; % Stimulation of control agonist response, hD4 ([11]; listed as dieckol): 74.43 ± 6.37%
														FC(F)(F)c1cc(CO[C@H]2CCCN[C@H]2c2ccccc2)cc(C(F)(F)F)c1 [L-733,060, reference compound]	IC50 ([4]; positive control, read-out: IC50 of standard antagonist, hNK1): 0.0016 µM
